{"source": "ChEMBL document CHEMBL1135579", "about": "“Serine-threonine protein phosphatase inhibitors: development of potential therapeutic strategies” (J Med Chem, 2002)", "key": {"L1210": {"system": "L1210", "assay": "Reduction of tumor cell growth to 50% in Fostriecin analogues in L1210 Leukemia cell lines", "assay_type": "functional", "details": "Mus musculus"}, "HCT-8": {"system": "HCT-8", "assay": "Reduction of tumor cell growth to 50% in Fostriecin analogues in HCT-8 colon cancer cell lines", "assay_type": "functional", "details": "Homo sapiens"}, "[1]": {"assay": "Inhibition of growth after 72 hr continuous exposure to test compounds in Osteosarcoma 143B tumor cell lines", "assay_type": "functional", "details": "Homo sapiens"}, "[2]": {"assay": "Inhibition of growth after 72 hr continuous exposure to test compounds in colon HT-29 tumor cell lines", "assay_type": "functional", "details": "Homo sapiens, HT-29, 72 h"}, "[3]": {"assay": "Inhibition of growth after 72 hr continuous exposure to test compounds in Colon HCT 116 tumor cell lines", "assay_type": "functional", "details": "Homo sapiens, HCT-116, 72 h"}, "[4]": {"assay": "Inhibition of growth after 72 hr continuous exposure to test compounds in Ovarian A2780 tumor cell lines", "assay_type": "functional", "details": "A2780, 72 h"}, "[5]": {"assay": "Inhibition of growth after 72 hr continuous exposure to test compounds in Ovarian ADDP tumor cell lines", "assay_type": "functional"}, "[6]": {"assay": "Exogenous inhibition concentration of Serine/threonine protein phosphatase 2A (PP2A)"}, "[7]": {"assay": "Exogenous inhibition of Serine/threonine protein phosphatase 1 (PP1)", "design": "species or system Homo sapiens"}, "[8]": {"assay": "Exogenous inhibition concentration of Serine/threonine protein phosphatase 2B (PP2B)"}, "[9]": {"assay": "Exogenous inhibition concentration of Serine/threonine protein phosphatase 2C (PP2C); NI means no inhibition."}, "Jurkat [10]": {"system": "Jurkat", "assay": "Inhibition of production of beta-galactosidase thymidine kinase RGA in Jurkat cells", "assay_type": "functional, cell-based", "details": "Homo sapiens"}, "Jurkat [11]": {"system": "Jurkat", "assay": "Inhibition of production of beta-galactosidase IL-2 RGA in Jurkat cells", "assay_type": "functional, cell-based", "details": "Homo sapiens"}}, "note": "pIC50: −log10 of the molar value.", "data": [{"smiles": "C[C@@](O)(/C=C/[C@@H]1OC(=O)C=CC1O)[C@@H](C[C@@H](O)\\C=C/C=C\\C=C\\CO)OP(=O)(O)O", "note": "(stereo not given in full)", "values": [{"measurement": "GI50", "setting": "L1210", "result": 830, "unit": "nM"}, {"measurement": "GI50", "setting": "HCT-8", "result": 4.2, "unit": "µM"}]}, {"smiles": "C[C@@](O)(/C=C/COC(=O)/C=C\\CO)[C@@H](C[C@@H](O)\\C=C/C=C\\C=C\\CO)OP(=O)(O)O", "values": [{"measurement": "GI50", "setting": "L1210", "result": "> 1000", "unit": "nM"}, {"measurement": "GI50", "setting": "HCT-8", "result": 56, "unit": "µM"}]}, {"smiles": "CCCOC1OC(=O)[C@H]2[C@@H]1[C@@H]1CC[C@H]2O1", "note": "(stereo not given in full)", "values": [{"measurement": "GI50", "setting": "[1]", "result": "> 1000", "unit": "µM"}, {"measurement": "GI50", "setting": "[2]", "result": 41, "unit": "µM"}, {"measurement": "GI50", "setting": "[3]", "result": 195, "unit": "µM"}, {"measurement": "GI50", "setting": "[4]", "result": 375, "unit": "µM"}, {"measurement": "GI50", "setting": "[5]", "result": 535, "unit": "µM"}]}, {"smiles": "CC(=O)OC(C)(C)[C@H]1CC[C@](C)([C@@H](O)CC[C@](C)(O)[C@H]2CC[C@H]3O[C@@H]([C@]4(C)CC[C@@H](Br)C(C)(C)O4)CC[C@]3(C)O2)O1", "values": [{"measurement": "pIC50", "setting": "[6]", "result": 5.40}, {"measurement": "pIC50", "setting": "[7]", "result": "< 3.00"}, {"measurement": "pIC50", "setting": "[8]", "result": "< 2.00"}]}, {"smiles": "C/C=C1/C(=O)C[C@@H](C(=O)O)[C@H](C)C(=O)N[C@@H](C(C)C)C(=O)N[C@@H](/C=C/C(C)=C/[C@H](C)[C@H](Cc2ccccc2)OC)[C@H](C)C(=O)N[C@@H](C(=O)O)CCC(=O)N1C", "values": [{"measurement": "pIC50", "setting": "[7]", "result": 8.74}, {"measurement": "pIC50", "setting": "[8]", "result": 2.06}, {"measurement": "IC50", "setting": "[9]", "result": "no inhibition"}]}, {"smiles": "COC(=O)C1C(C(=O)O)C2CC[C@H]1O2", "note": "(stereo not given in full)", "values": [{"measurement": "GI50", "setting": "[1]", "result": 118, "unit": "µM"}, {"measurement": "GI50", "setting": "[2]", "result": 105, "unit": "µM"}, {"measurement": "GI50", "setting": "[3]", "result": 76, "unit": "µM"}, {"measurement": "GI50", "setting": "[4]", "result": 100, "unit": "µM"}, {"measurement": "GI50", "setting": "[5]", "result": 180, "unit": "µM"}]}, {"smiles": "O=C(O)[C@@H]1[C@H](C(=O)O)[C@H]2CC[C@@H]1O2", "values": [{"measurement": "pIC50", "setting": "Jurkat [10]", "result": 4.38}, {"measurement": "pIC50", "setting": "Jurkat [11]", "result": "< 4.00"}]}, {"smiles": "CC[C@@H](C)[C@H]1NC(=O)[C@H]([C@@H](C)CC)NC(=O)[C@H]([C@@H](C)CC)NC(=O)[C@H]([C@@H](C)CC)NC(=O)[C@@H](Cc2ccccc2)NC(=O)[C@H](Cc2ccccc2)NC(=O)[C@@H]2CCCN2C(=O)[C@@H]2CCCN2C(=O)[C@H](C(C)C)NC1=O", "values": [{"measurement": "pIC50", "setting": "[8]", "result": 5.30}]}, {"smiles": "CC1(C(=O)O)C2CCC(O2)C1(C)C(=O)O", "note": "(stereo not given)", "values": [{"measurement": "pIC50", "setting": "[6]", "result": 7.30}, {"measurement": "pIC50", "setting": "[7]", "result": 6.22}]}, {"smiles": "CCOC1OC(=O)[C@H]2[C@@H]1[C@@H]1CC[C@H]2O1", "note": "(stereo not given in full)", "values": [{"measurement": "GI50", "setting": "[1]", "result": 103, "unit": "µM"}, {"measurement": "GI50", "setting": "[2]", "result": 26, "unit": "µM"}, {"measurement": "GI50", "setting": "[3]", "result": 80, "unit": "µM"}, {"measurement": "GI50", "setting": "[4]", "result": 100, "unit": "µM"}, {"measurement": "GI50", "setting": "[5]", "result": 107, "unit": "µM"}]}, {"smiles": "CCCOC(=O)C1C(C(=O)O)C2CC[C@H]1O2", "note": "(stereo not given in full)", "values": [{"measurement": "GI50", "setting": "[1]", "result": 450, "unit": "µM"}, {"measurement": "GI50", "setting": "[2]", "result": 15, "unit": "µM"}, {"measurement": "GI50", "setting": "[3]", "result": 75, "unit": "µM"}, {"measurement": "GI50", "setting": "[4]", "result": 110, "unit": "µM"}, {"measurement": "GI50", "setting": "[5]", "result": 315, "unit": "µM"}]}, {"smiles": "O=C1OC(=O)C2C3CCC(O3)C12", "note": "(stereo not given)", "values": [{"measurement": "GI50", "setting": "[1]", "result": 43, "unit": "µM"}, {"measurement": "GI50", "setting": "[2]", "result": 33, "unit": "µM"}, {"measurement": "GI50", "setting": "[3]", "result": 24, "unit": "µM"}, {"measurement": "GI50", "setting": "[4]", "result": 50, "unit": "µM"}, {"measurement": "GI50", "setting": "[5]", "result": 47, "unit": "µM"}, {"measurement": "pIC50", "setting": "Jurkat [10]", "result": 4.00}, {"measurement": "pIC50", "setting": "Jurkat [11]", "result": "< 4.66"}]}, {"smiles": "Cn1cc2c3c1C(=O)C1=C(C3=NCC2)C2(C=C(Br)C(=O)C(Br)=C2)CCN1", "note": "[DISCORHABDIN]", "values": [{"measurement": "pIC50", "setting": "[8]", "result": 5.94}]}, {"smiles": "C[C@]12C(=O)OC(=O)[C@H]1C1CC[C@H]2O1", "note": "[PALASONIN]", "values": [{"measurement": "pIC50", "setting": "[6]", "result": 6.92}, {"measurement": "pIC50", "setting": "[7]", "result": 6.15}]}, {"smiles": "C[C@@]12C(=O)OC(=O)[C@]1(C)[C@H]1CC[C@@H]2O1", "note": "[CANTHARIDIN]", "values": [{"measurement": "GI50", "setting": "[1]", "result": 10, "unit": "µM"}, {"measurement": "GI50", "setting": "[2]", "result": 6.4, "unit": "µM"}, {"measurement": "GI50", "setting": "[3]", "result": 9, "unit": "µM"}, {"measurement": "GI50", "setting": "[4]", "result": 10, "unit": "µM"}, {"measurement": "pIC50", "setting": "[7]", "result": 6.30}, {"measurement": "GI50", "setting": "[5]", "result": 11, "unit": "µM"}, {"measurement": "pIC50", "setting": "[8]", "result": "< 3.00"}]}, {"smiles": "C/C=C/C=C\\C=C/[C@H](O)C[C@@H](OP(=O)(O)O)[C@](C)(O)/C=C/[C@H]1CC=CC(=O)O1", "values": [{"measurement": "GI50", "setting": "L1210", "result": 220, "unit": "nM"}, {"measurement": "GI50", "setting": "HCT-8", "result": 1.5, "unit": "µM"}]}, {"smiles": "C=CC[C@@H]1/C=C(\\C)C[C@H](C)C[C@H](OC)[C@H]2O[C@@](O)(C(=O)C(=O)N3CCCC[C@H]3C(=O)O[C@H](/C(C)=C/[C@@H]3CC[C@@H](O)[C@H](OC)C3)[C@H](C)[C@@H](O)CC1=O)[C@H](C)C[C@@H]2OC", "note": "[TACROLIMUS ANHYDROUS]", "values": [{"measurement": "pIC50", "setting": "[8]", "result": 9.30}]}, {"smiles": "C[C@@](O)(/C=C/[C@H]1CC=CC(=O)O1)[C@@H](C[C@@H](O)\\C=C/C=C\\C=C\\CO)OP(=O)(O)O", "note": "[FOSTRIECIN]", "values": [{"measurement": "GI50", "setting": "L1210", "result": 210, "unit": "nM"}, {"measurement": "GI50", "setting": "HCT-8", "result": 2.3, "unit": "µM"}, {"measurement": "pIC50", "setting": "[7]", "result": 3.88}]}, {"smiles": "C[C@@](O)(/C=C/[C@H]1CC=CC(=O)O1)[C@H](O)C[C@@H](O)\\C=C/C=C\\C=C\\CO", "values": [{"measurement": "GI50", "setting": "L1210", "result": 2500, "unit": "nM"}, {"measurement": "GI50", "setting": "HCT-8", "result": 3.7, "unit": "µM"}]}]}
